Data taken from PubChem BioAssay AID179 (DTP/NCI, 2004).
The source made the active and inactive calls.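 The calls were made as follows: active = compounds giving half or more protection of infected cells from virus-caused growth loss, again on retest; inactive = the rest.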 Where a SMILES comes first, the peptide text is derived from it. The star is where a group is joined. Cbz = O=C(OCc1ccccc1)*; OSu = O=C1CCC(=O)N1O*

Tested on: CEM cells HIV-1 protection, formazan growth assay
Assay: NCI AIDS Antiviral Assay
Settings: for IC50: measured here: growth of uninfected CEM cells
In short: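 Soluble formazan readout of cell growth; CEM cells ± HIV-1; 5 drug concs. ≥50% protection → retest; ≥50% again = moderately active; reproducible 100% = confirmed active.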

| Compound | EC50 | IC50 | outcome |
| --- | --- | --- | --- |
| O=C1CCSSCCC(=O)NCCN1 | > 22.4 µM | > 22.4 µM | – |
| CCOc1cccc2sc(N)nc12 | – | – | inactive |
| CC1OC(OC2C(Oc3cc(O)c4c(c3)OC(c3ccc(O)cc3)CC4=O)OC(CO)C(O)C2O)C(O)C(O)C1O (configuration not stated) | > 200 µM | > 200 µM | – |
| CN(C)CC1CCC/C(=C\c2ccccc2)C1=O (configuration not stated) | > 200 µM | 0.708 µM | – |
| COc1nc(NC2OC(COC(C)=O)C(OC(C)=O)C(OC(C)=O)C2OC(C)=O)c(N=CC=Nc2c(NC3OC(COC(C)=O)C(OC(C)=O)C(OC(C)=O)C3OC(C)=O)nc(OC)n(C)c2=O)c(=O)n1C (configuration not stated) | – | – | inactive |
| CCOc1ccc(/C(O)=C/c2nc3ccccc3nc2/C=C(\O)c2ccc(OCC)cc2)cc1 | > 100 µM | > 100 µM | – |
| COC(=O)C(C(=O)C(=O)Nc1ccc(Br)cc1)c1nc2ccc(Cl)cc2[nH]c1=O (configuration not stated) | > 75.9 µM | 4.07 µM | – |
| CC(C)(C)C1C2N1C1(c3ccccc3)OC2(c2ccccc2)c2ccccc21 (configuration not stated) | > 10.2 µM | > 10.2 µM | – |
| Nc1c(N2CCCCC2)c(=O)nc2[nH]/c(=C\c3ccccc3)c(=O)n12 | > 200 µM | 95.5 µM | – |
| CN(C)CCNC(=O)Cn1cnc2cccc([N+](=O)[O-])c2c1=O | > 200 µM | > 200 µM | – |
| COc1ccc(C(=O)Nc2sc(SC)nc2C(N)=O)cc1 | > 200 µM | > 200 µM | – |
| Cc1ccc(N2C(N)=C(C#N)C(C#N)(C#N)C2c2ccccc2)cc1 (configuration not stated) | > 200 µM | 2.82 µM | – |
| Cc1cc(O)oc(=O)c1 | > 2000 µM | > 2000 µM | – |
| Cc1ccc(S(=O)(=O)SC(C)(C)C)cc1 | > 29.5 µM | 9.33 µM | – |
| O=C(O)c1cnc2c(ccc3[nH]cccc32)c1=O | > 75.9 µM | > 75.9 µM | – |
| Cc1nn(C(=O)c2ccncc2)c2c1C(c1ccc([N+](=O)[O-])cc1)SC(N)=N2 (configuration not stated) | > 200 µM | 126 µM | – |
| CC1(C)CC2=NO[Se]3=C2C(=NO3)C1 | > 3.55 µM | 0.191 µM | – |
| CC(C)N1CC2CC(CN(C(=O)c3ccc(Cl)cc3)C2)C1 | > 427 µM | > 427 µM | – |
| O=C1CCN2CCC(=O)c3cccc1c32 | – | – | inactive |
| Cc1cc(NS(=O)(=O)c2ccc(Nc3c4ccccc4nc4c(C(N)=O)cccc34)cc2)no1 | > 200 µM | 10.7 µM | – |
| N#CCCN(CCCCN(CCC#N)C(=O)Nc1ccccc1)C(=O)Nc1ccccc1 | > 200 µM | > 200 µM | – |

| Compound | EC50 | IC50 | outcome |
| --- | --- | --- | --- |
| N#Cc1c2c(c(Nc3ccc(F)cc3)n3c1nc1ccccc13)CCCC2 | > 200 µM | 81.3 µM | – |
| CCC1(O)C(=O)OCc2c1cc1n(c2=O)Cc2cc3cc(N)ccc3nc2-1 (configuration not stated) | > 0.1 µM | 0.0794 µM | – |
| CC(C)n1c(=O)c2nn3c(=O)n(C(C)C)c(=O)c3nn2c1=O | > 200 µM | > 200 µM | – |
| CCOP(=O)(OCC)C(=O)C1CC1 | > 1200 µM | 832 µM | – |
| COc1cc(-c2cc(-c3cc([N+](=O)[O-])c(/C=N/NC(=O)c4ccncc4)o3)ccc2OC)ccc1C | > 269 µM | 55 µM | – |
| O=C(NCCCNCCCNC(=O)c1cc(-c2ccccc2)nc2ccccc12)c1cc(-c2ccccc2)nc2ccccc12 | > 200 µM | 2.82 µM | – |
| Cc1ccc2nc(NC(=O)C(=O)C(C#N)c3ccc(Cl)cc3)sc2c1 (configuration not stated) | > 49 µM | > 49 µM | – |
| CC(=O)OCC1OC(OC2C(CSC3OC(COC(C)=O)C(OC(C)=O)C(OC(C)=O)C3OC(C)=O)OC(OC(C)=O)C(OC(C)=O)C2OC(C)=O)C(OC(C)=O)C(OC(C)=O)C1OC(C)=O (configuration not stated) | > 36.3 µM | > 36.3 µM | – |
| c1ccc(CCN(CCc2ccccn2)CCc2ccccn2)cc1 | – | – | inactive |
| CCOc1ccc(N=Cc2cc(OC)c(OC)c(OC)c2)cc1 | > 60.3 µM | > 60.3 µM | – |
| O=S(O)c1cc(Cl)cc(Cl)c1OCc1ccccc1 | – | – | inactive |
| N#Cc1ccccc1NC(=O)/C(=N\N)C(C(=O)c1ccncc1)C1OC(=O)c2ccccc21 (configuration not stated) | – | – | inactive |
| O=C1N(Cl)C2(c3ccccc3)N(Cl)C(=O)N(Cl)C2(c2ccccc2)N1Cl (configuration not stated) | > 200 µM | > 200 µM | – |
| O=C1C=CC(=O)C(CNc2ccc(C(=O)OC34CC5CC(CC(C5)C3)C4)cc2)=C1Br | > 200 µM | 1.51 µM | – |
| OCC1=CCN2C[C@@H](O)[C@@H](O)[C@@H]12 | > 200 µM | > 200 µM | – |
| COc1ccc(C(=O)C2=NON3OC23C(=O)c2ccc(OC)cc2)cc1 (configuration not stated) | > 38 µM | 6.76 µM | – |
| c1cc2c(s1)CCC/C2=N\N=C1/CCCc2sccc21 | – | – | inactive |
| Cn1c2c(c(=O)n(C)c1=O)CN(Cc1ccccc1)CN2 | > 200 µM | > 200 µM | – |
| Nc1cccc(C(=O)/C=C/c2ccccc2O)c1 | > 282 µM | 55 µM | – |
| O=C1OCC(Cc2ccc3c(c2)OCO3)[C@H]1Cc1ccc(O)cc1 (some centres not stated) | > 200 µM | 66.1 µM | – |
| O=C(OCCCl)c1ccccc1NC(=O)N1CCOCC1 | – | – | inactive |

| Compound | EC50 | IC50 | outcome |
| --- | --- | --- | --- |
| O=c1ccc2c(-c3ccccc3O)c3ccc(O)cc3oc-2c1 | > 95.5 µM | 17.4 µM | – |
| CC1OC(OC2C(Oc3ccc4c(=O)c(-c5ccc(O)c(O)c5O)coc4c3)OC(CO)C(O)C2O)C(O)C(O)C1O (configuration not stated) | > 200 µM | 67.6 µM | – |
| CCN(CC)CCN1C=CC(C)C(C(=O)O)C1C(N)=O (configuration not stated) | > 100 µM | > 100 µM | – |
| CC(=O)OC1Cn2ccc[n+]2C1 (configuration not stated) | > 200 µM | > 200 µM | – |
| CC(NC(=O)C(NC(=O)OCc1ccccc1)C(C)C)C(=O)NCC(=O)ON1C(=O)CCC1=O (stereo not drawn) (Cbz-Val-Ala-Gly-OSu; configuration not given here) | > 100 µM | > 100 µM | – |
| COc1ccc2nc3c([N+](=O)[O-])ccc4c3c(c2c1)NCCN4CCO | > 200 µM | 0.398 µM | – |
| O=C1OC2CS(=O)CC2O1 (configuration not stated) | > 1550 µM | > 1550 µM | – |
| O=C(Nc1ccccc1C(=O)O)C(=Cc1ccccc1O)NC(=O)c1ccccc1 | > 200 µM | > 200 µM | – |
| Nc1nn2cc3c(nc2c1N=Nc1ccc(Cl)cc1)CCCCC3 | > 151 µM | > 151 µM | – |
| Oc1ccccc1SSc1ccccc1O | > 200 µM | 63.1 µM | – |
| Cc1cccc(C(C)(C)C)c1NC(=O)C(=O)C(c1cnc2ccccc2n1)[N+](=O)[O-] (configuration not stated) | > 324 µM | 120 µM | – |
| Cc1cccc(N(CCC#N)S(=O)(=O)c2ccccc2)c1 | > 200 µM | 110 µM | – |
| CN(C)C(=O)Oc1c(-c2ccccc2)c(=O)n2c3ccccc3n3c(=O)n(C)c(=O)c1c23 | > 1.26 µM | > 1.26 µM | – |
| C=CCn1c(-c2ccc(Cl)cc2Cl)csc1=Nc1c(C)n(C)n(-c2ccccc2)c1=O | > 200 µM | 6.61 µM | – |
| COc1ccc(-c2c(C)c(C(=O)O)nc(-c3ccc4c(O)c(OC)c5c(c4n3)=NC(C)(C)N=5)c2N)c(O)c1OC | > 457 µM | 2.4 µM | – |
| Cc1nnnn1C12CC3CC(CC(C3)C1)C2 | – | – | inactive |
| CCCCCC/C=C\CCCCCCCCCC1=CC(=O)C=C(OC)C1=O | > 9.55 µM | > 9.55 µM | – |
| COc1ccc(NC(=S)/C(=C(\[O-])c2ccc([N+](=O)[O-])cc2)[n+]2ccc(C(C)C)cc2)cc1 | > 200 µM | > 100 µM | – |
| COc1cc2c3c(ccc2cc1O)-c1cc(OC)c(OC)cc1C[N+]3(C)C | > 4.47 µM | > 4.47 µM | – |
| CCOC(=O)c1ccc(CSc2ccccc2)cc1 | > 26.3 µM | > 26.3 µM | – |
| COc1ccc([N+](=O)[O-])c2c(NCCCN(C)C)c(C)c(C)nc12 | > 200 µM | 91.2 µM | – |
